Data published in PubChem BioAssay AID248 (DTP/NCI, 2004).
Values joined by “and” are separate entries in the source; they are usually repeats but may differ in a detail not shown here. Equal values may be shown once. Inconclusive results and toxic doses are left out. Rule as the data show it: active = T/C of 150% or more; inactive = T/C below 125%.

Test system: L1210 leukemia ip in BDF1 mice, survival T/C
Assay: NCI In Vivo Anticancer Drug Screen. Data for tumor model L1210 Leukemia (intraperitoneal) in B6D2F1 (BDF1) mice
Conditions: endpoint: mean survival time, higher = longer survival
Procedure, shortened: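 Each compound was tested against a transplantable tumor grown in mice. The endpoint was survival, with treated animals benchmarked against vehicle controls as a simple ratio.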

[1] = dose: 100.0 mg/kg/injection, schedule: Q01DX001 (ip), vehicle: carboxymethylcellulose (CMC)
[2] = dose: 100.0 mg/kg/injection, schedule: Q04DX002 (ip), vehicle: Klucel (hydroxypropylcellulose) (HPC)
[3] = dose: 200.0 mg/kg/injection, schedule: Q01DX001 (ip), vehicle: carboxymethylcellulose (CMC)
[4] = dose: 200.0 mg/kg/injection, schedule: Q04DX002 (ip), vehicle: Klucel (hydroxypropylcellulose) (HPC)
[5] = dose: 400.0 mg/kg/injection, schedule: Q01DX001 (ip), vehicle: carboxymethylcellulose (CMC)
[6] = dose: 400.0 mg/kg/injection, schedule: Q04DX002 (ip), vehicle: Klucel (hydroxypropylcellulose) (HPC)
[7] = dose: 50.0 mg/kg/injection, schedule: Q01DX009 (ip), vehicle: Klucel (hydroxypropylcellulose) (HPC)
[8] = dose: 100.0 mg/kg/injection, schedule: Q01DX009 (ip), vehicle: Klucel (hydroxypropylcellulose) (HPC)
[9] = dose: 100.0 mg/kg/injection, schedule: Q04DX003 (ip), vehicle: Klucel (hydroxypropylcellulose) (HPC)
[10] = dose: 200.0 mg/kg/injection, schedule: Q04DX003 (ip), vehicle: Klucel (hydroxypropylcellulose) (HPC)
[11] = dose: 400.0 mg/kg/injection, schedule: Q04DX003 (ip), vehicle: Klucel (hydroxypropylcellulose) (HPC)
[12] = dose: 100.0 mg/kg/injection, schedule: Q01DX001 (ip), vehicle: saline with Tween-80
[13] = dose: 200.0 mg/kg/injection, schedule: Q01DX001 (ip), vehicle: saline with Tween-80
[14] = dose: 400.0 mg/kg/injection, schedule: Q01DX001 (ip), vehicle: saline with Tween-80
[15] = dose: 100.0 mg/kg/injection, schedule: Q01DX001 (ip), vehicle: saline
[16] = dose: 200.0 mg/kg/injection, schedule: Q01DX009 (ip), vehicle: Klucel (hydroxypropylcellulose) (HPC)
[17] = dose: 400.0 mg/kg/injection, schedule: Q01DX001 (ip), vehicle: saline
[18] = dose: 400.0 mg/kg/injection, schedule: Q01DX009 (ip), vehicle: Klucel (hydroxypropylcellulose) (HPC)
[19] = dose: 100.0 mg/kg/injection, schedule: Q04DX003 (ip), vehicle: saline with Tween-80
[20] = dose: 200.0 mg/kg/injection, schedule: Q04DX003 (ip), vehicle: saline with Tween-80
[21] = dose: 400.0 mg/kg/injection, schedule: Q04DX003 (ip), vehicle: saline with Tween-80
[22] = dose: 100.0 mg/kg/injection, schedule: Q01DX009 (ip), vehicle: saline with Tween-80
[23] = dose: 200.0 mg/kg/injection, schedule: Q01DX009 (ip), vehicle: saline with Tween-80
[24] = dose: 25.0 mg/kg/injection, schedule: Q01DX009 (ip), vehicle: saline with Tween-80
[25] = dose: 50.0 mg/kg/injection, schedule: Q01DX009 (ip), vehicle: saline with Tween-80
[26] = dose: 100.0 mg/kg/injection, schedule: Q04DX002 (ip), vehicle: saline with Tween-80

Measured: T/C

CNC(=O)Oc1ccc(C2CCCCC2)cc1
inactive: [1] 99 % of control | dose: 100.0 mg/kg/injection, schedule: Q01DX009 (ip), vehicle: carboxymethylcellulose (CMC) 93 % of control and 103 % of control | [2] 97 % of control | dose: 100.0 mg/kg/injection, schedule: Q04DX002 (ip), vehicle: carboxymethylcellulose (CMC) 95 % of control and 101 % of control | dose: 100.0 mg/kg/injection, schedule: Q04DX003 (ip), vehicle: carboxymethylcellulose (CMC) 94 % of control | [3] 90 % of control | dose: 200.0 mg/kg/injection, schedule: Q01DX009 (ip), vehicle: carboxymethylcellulose (CMC) 93 % of control and 95 % of control | [4] 97 % of control | dose: 200.0 mg/kg/injection, schedule: Q04DX002 (ip), vehicle: carboxymethylcellulose (CMC) 101 % of control and 108 % of control | dose: 200.0 mg/kg/injection, schedule: Q04DX003 (ip), vehicle: carboxymethylcellulose (CMC) 94 % of control | [5] 92 % of control | dose: 400.0 mg/kg/injection, schedule: Q01DX009 (ip), vehicle: carboxymethylcellulose (CMC) 98 % of control and 100 % of control | [6] 100 % of control | dose: 400.0 mg/kg/injection, schedule: Q04DX002 (ip), vehicle: carboxymethylcellulose (CMC) 95 % of control and 101 % of control | dose: 400.0 mg/kg/injection, schedule: Q04DX003 (ip), vehicle: carboxymethylcellulose (CMC) 100 % of control

COc1ccc([N+](=O)[O-])c2c1CONC2(C)C(=O)O (stereo unspecified)
inactive: dose: 100.0 mg/kg/injection, schedule: Q04DX003 (ip), vehicle: acetone 98 % of control | dose: 200.0 mg/kg/injection, schedule: Q04DX003 (ip), vehicle: acetone 95 % of control | dose: 400.0 mg/kg/injection, schedule: Q04DX003 (ip), vehicle: acetone 98 % of control

CONP(=O)(Oc1ccccc1)Oc1ccccc1
inactive: [1] 95 % of control | [3] 95 % of control | [5] 97 % of control

N#CSC/C=C/Cl
inactive: [7] 94 % of control | [8] 107 % of control | [9] 92 % of control | [10] 90 % of control

Cc1c[n+]([O-])ccc1N=Nc1ccc(N(C)C)cc1
inactive: dose: 25.0 mg/kg/injection, schedule: Q04DX003 (ip), vehicle: Klucel (hydroxypropylcellulose) (HPC) 104 % of control | dose: 50.0 mg/kg/injection, schedule: Q04DX003 (ip), vehicle: Klucel (hydroxypropylcellulose) (HPC) 110 % of control | [9] 106 % of control and 107 % of control

CN(C)C(=S)Oc1ccc(C(F)(F)F)cc1
inactive: [9] 95 % of control | [10] 93 % of control | [11] 101 % of control

CC(=O)N(Cc1ccccc1)C1C(OCc2ccccc2)OC(CO)C(O)C1OCc1ccccc1 (stereo unspecified)
inactive: [12] 89 % of control | [13] 96 % of control | [14] 100 % of control

CC(=O)/C(=C\c1ccccc1)c1ccccc1
inactive: [9] 96 % of control | [10] 91 % of control | [11] 98 % of control

Cc1cc(C)cc(OCCO)c1
inactive: [2] 97 % of control | [4] 102 % of control | [6] 91 % of control

S=P(c1ccccc1)(N1CCN(c2ccc(Cl)cc2)CC1)N1CCN(c2ccc(Cl)cc2)CC1
inactive: [15] 88 % of control | [8] 102 % of control | [9] 95 % of control | [16] 91 % of control | [17] 90 % of control | [18] 93 % of control | [11] 92 % of control

CCOC(=O)c1ccc(NC(=O)Nc2ccc(SC)cc2)cc1
inactive: [8] 98 % of control | [16] 95 % of control | [18] 104 % of control

CCOC(=O)NCC(C)(CCN1CCCCC1)c1cccc2ccccc12 (stereo unspecified)
inactive: dose: 6.25 mg/kg/injection, schedule: Q04DX003 (ip), vehicle: saline with Tween-80 104 % of control | dose: 12.5 mg/kg/injection, schedule: Q04DX003 (ip), vehicle: saline with Tween-80 98 % of control | dose: 25.0 mg/kg/injection, schedule: Q04DX003 (ip), vehicle: saline with Tween-80 97 % of control

O=C1C=CC(=O)N1C12CC3CC(CC(C3)C1)C2
inactive: dose: 12.5 mg/kg/injection, schedule: Q04DX002 (ip), vehicle: Klucel (hydroxypropylcellulose) (HPC) 98 % of control | dose: 25.0 mg/kg/injection, schedule: Q04DX002 (ip), vehicle: Klucel (hydroxypropylcellulose) (HPC) 105 % of control | dose: 50.0 mg/kg/injection, schedule: Q04DX002 (ip), vehicle: Klucel (hydroxypropylcellulose) (HPC) 94 % of control

CN(C(N)=S)c1ccccc1
inactive: [19] 101 % of control | [20] 102 % of control | [21] 104 % of control

C1C2C3OC3C1C1C2C2C3CC(C4OC34)C12 (stereo unspecified)
inactive: [22] 94 % of control | [19] 100 % of control | [23] 94 % of control | [20] 101 % of control | dose: 400.0 mg/kg/injection, schedule: Q01DX009 (ip), vehicle: saline with Tween-80 94 % of control | [21] 97 % of control

O=C(/C=C/c1ccccc1Cl)c1ccccc1
inactive: [7] 99 % of control | [8] 92 % of control | [16] 96 % of control

CSc1ccc(NC(=O)Oc2ccc3c(C)cc(=O)oc3c2)cc1
inactive: [24] 93 % of control and 100 % of control | [25] 95 % of control and 89 % of control | [12] 94 % of control | [26] 98 % of control and 91 % of control | [19] 87 % of control | [13] 94 % of control | dose: 200.0 mg/kg/injection, schedule: Q04DX002 (ip), vehicle: saline with Tween-80 94 % of control and 91 % of control | [20] 86 % of control | [14] 96 % of control | dose: 400.0 mg/kg/injection, schedule: Q04DX002 (ip), vehicle: saline with Tween-80 96 % of control and 98 % of control | [21] 95 % of control

OCC1OC(Sc2ccccc2)C(O)C(O)C1O (stereo unspecified)
inactive: [9] 111 % of control | [10] 105 % of control | [11] 111 % of control

COCc1ccc(C(=O)Nc2c(N)ncnc2N)cc1
inactive: [12] 100 % of control | [13] 102 % of control | [14] 95 % of control

C1CC2CCC1CNC2
inactive: dose: 50.0 mg/kg/injection, schedule: Q04DX003 (ip), vehicle: saline 104 % of control | dose: 100.0 mg/kg/injection, schedule: Q04DX003 (ip), vehicle: saline 106 % of control

CCOC(=O)c1cc(OC(C)=O)c2c(ccc3ccccc32)c1C
inactive: [8] 98 % of control | [16] 88 % of control | [18] 91 % of control

CC(=O)OCC1OC(n2cnc(N)c2C#N)C(OC(C)=O)C1OC(C)=O (stereo unspecified)
inactive: dose: 50.0 mg/kg/injection, schedule: Q01DX001 (ip), vehicle: saline 98 % of control | [15] 102 % of control | dose: 200.0 mg/kg/injection, schedule: Q01DX001 (ip), vehicle: saline 102 % of control | [17] 102 % of control

CC(C1CCC/C(=N\NC(N)=O)C1)[N+](=O)[O-] (stereo unspecified)
inactive: [24] 95 % of control | [25] 104 % of control | [22] 89 % of control | [19] 90 % of control | [20] 98 % of control

CCCC(=O)Nc1ccc(O)cc1
inactive: [22] 100 % of control | [19] 96 % of control | [23] 110 % of control | [20] 101 % of control | dose: 266.0 mg/kg/injection, schedule: Q01DX009 (ip), vehicle: saline with Tween-80 109 % of control | [21] 106 % of control

CCCCNC(=O)COc1c(C)cccc1Cl
inactive: dose: 25.0 mg/kg/injection, schedule: Q04DX002 (ip), vehicle: saline with Tween-80 101 % of control | dose: 50.0 mg/kg/injection, schedule: Q04DX002 (ip), vehicle: saline with Tween-80 96 % of control | [26] 96 % of control

CNC(=S)N/N=C(\C=N\NC(=S)NC)c1ccc(OC)cc1
inactive: [2] 101 % of control | [4] 101 % of control | [6] 105 % of control
